# Experiments:
# [1] = test system: mice; assay: Locomotor activity (LA) test, open-field chamber; format: in vivo, male ICR mice; details: RES003 at the dose that significantly reduced immobility response, 30 min before test
# Experimental: (§1) Male ICR mice, weighing between 22–25 g, were obtained from the Animal Centre at Changzhou University. All experiments were carried out according to the National Institute of Health Guide for Care and Use of Laboratory Animals (1996) and were approved by the Institutional Animal Care and Use Committee of Changzhou University (NO. Y20180023). Fluoxetine and resveratrol were purchased from Sigma Chemical Co. (St Louis, MO). For animal behavioural tests, RES003 and rolipram were dissolved in saline containing 5% DMSO, 5% Solutol and 90% saline. The positive control drug fluoxetine was dissolved simply in saline. Mice were given intra-gastric (i.g.) administration (RES003: 2.5, 5.0 and 10 mg/kg) or intraperitoneal (i.p.) injections (fluoxetine: 5 mg/kg and rolipram: 10 mg/kg) in a volume of 10 mL/kg body weight.
# LA test was assessed using an open-field chamber according to previous procedure (Li et al. [2014]). The floor of the chamber was divided into 16 identical squares. Mice were individually placed in the centre of the chamber and allowed to acclimatize for 15 min. Their paws were contacted or disconnected the active bars which can produce random configurations. The locomotor counts of mice were measured by counting the number of line crossings in the following 10 min.
# [2] = test system: BDNF; assay: Western blot of BDNF expression in brain tissue of CUS mice; format: in vivo, male ICR mice; details: RES003 5 and 10 mg/kg, vs model group, p < 0.05 and 0.01
# Experimental: as §1
# (§2) The chronic unpredictable stress procedure was carried out as described previously with minor modification (Polster and Fiskum [2004]). […]
# (§3) After the chronic un-predictable stress (CUS) procedure, sucrose preference test was assessed on the following day, and then forced swimming test (FST) was carried out the next day. […]
# (§4) The brain tissues were dissected and stored at −80 °C until analysis after mice were sacrificed. […] The detection and quantification of specific bands were performed using a fluorescence scanner and ‘Image-Pro’ software. […]
# [3] = test system: pCREB/CREB; assay: Western blot of pCREB/CREB in brain tissue of CUS mice; format: in vivo, male ICR mice; details: RES003 10 mg/kg, vs model group, p < 0.05
# Experimental: as §1, §2, §3, §4
# [4] = biological target: PDE2 (Homo sapiens, UniProt O00408); assay: PDE enzymatic assay (radioactive tracer, 3H-cAMP/3H-cGMP); format: biochemical; details: 3H-cAMP or 3H-cGMP substrate, 24 °C, 30 min; read-out: IC50 against PDE2
# Chain of PDE2 (O00408 whole entry): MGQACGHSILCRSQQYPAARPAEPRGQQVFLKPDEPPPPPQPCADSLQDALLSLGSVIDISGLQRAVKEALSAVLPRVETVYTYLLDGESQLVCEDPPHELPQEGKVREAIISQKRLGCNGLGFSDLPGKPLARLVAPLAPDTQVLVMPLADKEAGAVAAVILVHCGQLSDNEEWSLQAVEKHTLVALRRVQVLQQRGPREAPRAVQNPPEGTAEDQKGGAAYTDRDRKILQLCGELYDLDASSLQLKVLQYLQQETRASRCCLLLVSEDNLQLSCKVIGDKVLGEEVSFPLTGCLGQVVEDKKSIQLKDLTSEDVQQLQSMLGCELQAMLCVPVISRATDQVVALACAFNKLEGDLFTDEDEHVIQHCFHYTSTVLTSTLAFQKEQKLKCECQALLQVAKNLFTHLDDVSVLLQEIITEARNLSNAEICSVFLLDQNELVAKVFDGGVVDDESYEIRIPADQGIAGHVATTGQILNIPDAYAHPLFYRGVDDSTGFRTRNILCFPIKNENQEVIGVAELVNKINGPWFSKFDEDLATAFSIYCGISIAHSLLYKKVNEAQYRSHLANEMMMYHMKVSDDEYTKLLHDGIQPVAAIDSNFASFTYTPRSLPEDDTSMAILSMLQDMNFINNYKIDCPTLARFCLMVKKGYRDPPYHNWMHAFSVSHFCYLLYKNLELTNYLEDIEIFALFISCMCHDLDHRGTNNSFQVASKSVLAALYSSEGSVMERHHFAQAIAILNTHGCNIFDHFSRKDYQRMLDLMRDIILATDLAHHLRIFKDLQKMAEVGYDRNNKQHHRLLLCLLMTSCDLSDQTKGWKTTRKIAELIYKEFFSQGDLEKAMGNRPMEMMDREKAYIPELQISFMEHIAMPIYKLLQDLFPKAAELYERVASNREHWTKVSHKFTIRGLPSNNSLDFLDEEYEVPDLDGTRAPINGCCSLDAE
# Experimental: (§5) All the enzymatic activities of PDEs were assayed by using ^3H- cyclic guanosine monophosphate (cGMP) or ^3H-cAMP as the substrate. PDEs were firstly incubated with the reaction mixture of 50 mmol/L Tris-hydrogen chloride (HCl), pH 7.8, 10 mmol/L magnesium chloride (MgCl2) and ^3H-cAMP or ^3H-cGMP (40, 000 cpm/assay) at 24 °C for 30 min. Then, the reaction was terminated by addition of zinc sulfate and barium hydroxide. Activity of test compounds was assessed by measuring the amount of ^3H-cGMP or ^3H-cAMP resulting from enzyme cleavage. The reaction product ^3H-AMP or ^3H-GMP was precipitated by adding barium sulfate, while unreacted ^3H-cAMP or ^3H-cGMP remained in the supernatant. Radioactivity in the supernatant was measured in 2.5 mL of ultima gold liquid scintillation. At least eight concentrations of inhibitors (0.05–500 μM) were used in the presence of suitable substrates for the measurement of half maximal inhibitory concentration IC50 values, which were calculated by non-linear regression. Each measurement was repeated three times.
# [5] = test system: PDE1; assay: as above; format: biochemical; details: 3H-cAMP or 3H-cGMP substrate, 24 °C, 30 min; read-out: IC50 against PDE1
# Experimental: as §5
# [6] = test system: PDE4; assay: as above; format: biochemical; details: for IC50: 3H-cAMP or 3H-cGMP substrate, 24 °C, 30 min, read-out: IC50 against PDE4
# Experimental: as §5
# [7] = test system: PDE3; assay: as above; format: biochemical; details: 3H-cAMP or 3H-cGMP substrate, 24 °C, 30 min; read-out: IC50 against PDE3
# Experimental: as §5
# [8] = biological target: PDE5 (Homo sapiens, UniProt O76074); assay: as above; format: biochemical; details: 3H-cAMP or 3H-cGMP substrate, 24 °C, 30 min; read-out: IC50 against PDE5
# Experimental: as §5
# [9] = test system: chronic unpredictable stress mice; assay: Sucrose preference test (SPT) after chronic unpredictable stress; format: in vivo, male ICR mice; details: RES003 5 and 10 mg/kg (medium and large dose), once a day for 10 days, CUS mice, vs model group, p < 0.01
# Experimental: as §1, §2, §3
# The SPT was performed according to the previous description with minor modification (Yu et al. [2013]). […] The sucrose preference was calculated as the ratio of the consumed sucrose solution to the total amount of liquid consumed.
# [10] = test system: chronic unpredictable stress mice; assay: Forced swimming test (FST) after chronic unpredictable stress; format: in vivo, male ICR mice; details: fluoxetine 5 mg/kg i.p., CUS mice, p < 0.05
# Experimental: as §1, with “Mice were given intra-gastric (i.g.) administration (RES003: 2.5, 5.0 and 10 mg/kg) or intraperitoneal (i.p.) injections (fluoxetine: 5 mg/kg and rolipram: 10 mg/kg) in a volume of 10 mL/kg body weight.” left out
# as §3
# According to the previous description, animals were individually placed in glass cylinders (25 cm height, 10 cm diameter) containing 10 cm depth of water at 24 ± 1 °C for 6 min, allowing for free swimming (Porsolt et al. [1978]). […] A mouse was determined to be immobile when there were only small movements necessary to keep its head above water. The immobility time was recorded during the 5 min testing period.
locomotor activity (line crossings in 10 min) [1],IC50 [4],IC50 [5],IC50 [6],IC50 [7],IC50 [8],SMILES,BDNF expression in brain tissue [2],ratio of pCREB/CREB in brain tissue [3],"selectivity for PDE4 over PDE1, PDE2, PDE3 and PDE5 ([6]; ratio of IC50 values)",consumption of sugar water (sucrose preference) [9],immobility time in forced swimming test [10]
did not affect the locomotor activity,> 100 µM,92.6 ± 8.3 µM,0.87 µM,> 100 µM,> 100 µM,"Oc1ccc(-c2cc(-c3cc(O)cc(O)c3)n[nH]2)cc1 [RES003, 5-[5-(4-Hydroxyphenyl)-1H-pyrazol-3-yl]benzene-1,3-diol]",significantly upregulated,reversed,> 100 fold,significantly increase the consumption of sugar water,–
–,–,–,–,–,–,"CNCCC(Oc1ccc(C(F)(F)F)cc1)c1ccccc1 (stereo not shown) [fluoxetine, Fluoxetine, reference compound]",–,–,–,–,significant anti-depressant-like effects
–,> 100 µM,8.7 ± 1.1 µM,18.8 µM,12.7 ± 2.1 µM,> 100 µM,"Oc1ccc(/C=C/c2cc(O)cc(O)c2)cc1 [resveratrol, Resveratrol]",–,–,–,–,–

# — publication PMC8049461, “The anti-depressant effects of a novel PDE4 inhibitor derived from resveratrol” (Pharmaceutical Biology, 2021)
